Biological target: T1, human vasopressin V1a receptor subtype (Homo sapiens, UniProt P37288)
T1 construct: host or cells: CHO cells (pZeoSV vector for the Thibonnier line)
Experiment: Vasopressin binding in Chinese Hamster Ovary cell membranes expressing human vasopressin V1a subtype receptors
Conditions: 100 nM, CHO cell membranes, [3H]Manning ligand, values without parentheses
Procedure: Vasopressin Binding in Chinese Hamster Ovary Cell Membranes Expressing Human Vasopressin V1a Subtype Receptors
The trypsin is removed by aspiration and the cells dislodged by tapping. Cell Culture medium (e.g. 30 mL for 1:30 split) is immediately added and mixed well to inactivate trypsin. 1 mL of detached cells is added to new culture flasks containing fresh cell culture medium (e.g., into 25 mL per T-150 flask), and mixed gently. The cells are incubated at 37° C. in 5% CO2. The medium is changed at 3 to 4 days interval (or as appropriate). […] All steps are done under sterile conditions. B. Membrane Preparation: The cells are washed twice gently with Hank's Balanced Salt solution (e.g,. use 10 mL per T-150 flask). […] The contents are transferred to centrifuge tubes (50 mL) kept in an ice bath. All subsequent steps are done at 4° C. The tubes are centrifuged at 300×g for 15 min (1380 rpm on SORVAL, Model RT6000D, using the rotor for 50 mL tubes). The supernatant is discarded and the cells suspended in homogenizing buffer(10 mM Tris-HCl containing 0.25 M sucrose and 1 mM EDTA, pH 7.4) ensuring that the volume of the buffer is about ten times the volume of the cell pellet. The cells are pooled into a centrifuge tube (50 mL) and homogenized with a Polytron at setting 6 for 10 sec. The homogenate is transferred into a Potter-Elvjehm homogenizer and homogenized with 3 strokes. The homogenate is centrifuged at 1500×g for 10 min at 4° C. (3100 rpm using SORVAL, model RT6000D, using the rotor for 50 mL tubes). The pellet is discarded. The supernatant is centrifuged at 100,000×g for 60 min. at 4° C. (Beckman L8-80M ultracentrifuge; spin at 37,500 rpm with rotor type 70 Ti for 50 mL tubes; 38,000 rpm with type 80Ti for 15 mL tubes; or 35,800 rpm with rotor type 45Ti). The supernantant is discarded and the pellet suspended in 3 to 4 mL of Tris buffer (50 mM TRIS-HCl, pH 7.4). The protein content is estimated by the Bradford or Lowry method. The volume of the membrane suspension is adjusted with the membrane buffer (50 mM Tris-HCl containing 0.1% BSA and 0.1 mM PMSF) to give 3.0 mg/mL (or as appropriate) of protein. The membranes are aliquoted and stored at −70° C. C. Radioligand Binding Assay: In wells of a 96-well format microtiter plate, is added 90, 110 or 130 μL (to make up a final volume of 200 μL) of assay buffer containing 50 mM of Tris-HCl (pH 7.4), BSA (heat inactivated, protease-free), […], 1 mg % aprotinin, 1 mg % leupeptin, 2 mg % 1,10-phenanthroline, 10 mg % trypsin inhibitor, and 0.1 mM PMSF. The inhibitors are added on the day of the experiment. The components are mixed at room temperature, and then kept in ice bath following adjustment of the pH to 7.4. […] 20 μL of 50% DMSO is added for Manning and other peptide ligands and the assay buffer volume is adjusted accordingly. To each well is added 50 μL of frozen membrane suspension thawed immediately prior to use and diluted in the assay buffer to the required concentration (equivalent to 25 to 50 μg of protein/well as needed). 20 μL of 8 nM [^3H]Manning ligand in the assay buffer, prepared just before use, is added, and incubated at room temperature for 60 min. shaking the plate on a mechanical shaker for the first 15 min. The incubation is stopped by rapid filtration of the plate contents followed by wash with ice-cold buffer (50 mM Tris-HCl, pH 7.4) using a cell harvester (Tomtek and Printed filtermat-B filter paper). The filter paper is thoroughly dried (7–12 min. in a microwave oven) and impregnated with MeltiLex B/H melt-on scintillation wax sheets and the radioactivity counted in a betaplate scintillation counter.
Binding data is either reported as percent inhibition at a certain concentration or if an IC50 was calculated, as a nanomolar concentration.

T1 sequence (P37288 whole entry): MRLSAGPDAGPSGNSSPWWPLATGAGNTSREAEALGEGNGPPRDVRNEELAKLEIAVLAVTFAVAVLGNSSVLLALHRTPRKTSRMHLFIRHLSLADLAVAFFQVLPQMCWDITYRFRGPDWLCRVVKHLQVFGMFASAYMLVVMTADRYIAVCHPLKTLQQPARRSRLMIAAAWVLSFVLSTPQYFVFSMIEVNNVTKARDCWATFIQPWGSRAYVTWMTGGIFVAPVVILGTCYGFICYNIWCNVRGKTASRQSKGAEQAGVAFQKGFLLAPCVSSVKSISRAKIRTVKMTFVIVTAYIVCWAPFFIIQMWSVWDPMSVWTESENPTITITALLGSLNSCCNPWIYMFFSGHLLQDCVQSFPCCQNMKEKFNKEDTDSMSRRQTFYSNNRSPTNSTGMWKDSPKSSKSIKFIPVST

Row | SMILES | inhibition at 0.1 µM [%] | V1a % inhibition @ 100 nM [%]
1 | COc1ccccc1-c1ccc(C(=O)N2Cc3ccc(C(=O)N4CC[C@@H](N(C)C)C4)n3Cc3ccccc32)cc1OC [Example 282, {10-[(2,2′-Dimethoxy[1,1′-biphenyl]-4-yl)carbonyl]-10,11-dihydro-5H-pyrrolo[2,1-c][1,4]benzodiazepin-3-yl][(3R)-3-(dimethylamino)pyrrolidinyl]methanone] | – | 1
2 | COc1cc(C(=O)N2Cc3ccc(C(=O)N4CCC[C@H]4CN4CCCC4)n3Cc3ccccc32)ccc1-c1ccccc1Cl [Example 33, {[10-(2-Methoxy)-2′-chloro-[1,1′-biphenyl]-4-yl]carbonyl}-[(2S)-[(2-pyrrolidin-1-yl)methyl]pyrrolidin-1-yl]-10,11-dihydro-5H-pyrrolo[2,1-c][1,4]benzodiazepin-3-yl-methanone] | – | 68
3 | COc1cccc(-c2ccc(C(=O)N3Cc4ccc(C(=O)N5CC[C@@H](N(C)C)C5)n4Cc4ccccc43)cc2OC)c1 [Example 283, {10-[(2,3′-Dimethoxy[1,1′-biphenyl]-4-yl)carbonyl]-10,11-dihydro-5H-pyrrolo[2,1-c][1,4]benzodiazepin-3-yl}[(3R)-3-(dimethylamino)pyrrolidinyl]methanone] | – | 40
4 | COc1cccc(-c2cc(OC)c(C(=O)N3Cc4ccc(C(=O)N5CC[C@@H](N(C)C)C5)n4Cc4ccccc43)cc2Cl)c1 [Example 275, {10-[(6-Chloro-3,3′-dimethoxy[1,1′-biphenyl]-4-yl)carbonyl]-10,11-dihydro-5H-pyrrolo[2,1-c][1,4]benzodiazepin-3-yl}[(3R)-3-(dimethylamino)pyrrolidinyl]methanone] | – | 9
5 | COc1ccccc1-c1ccc(C(=O)N2Cc3ccc(C(=O)N(C)CCCN(C)C)n3Cc3ccccc32)cc1OC [Example 107, 10-[(2,2′-Dimethoxy[1,1′-biphenyl]-4-yl)carbonyl]-N-[3-(dimethylamino)propyl]-N-methyl-10,11-dihydro-5H-pyrrolo[2,1-c][1,4]benzodiazepine-3-carboxamide] | 15 | –
6 | COc1cc(-c2ccccc2C)c(Cl)cc1C(=O)N1Cc2ccc(C(=O)N3CCC[C@H]3CN3CCCC3)n2Cc2ccccc21 [Example 267, {10-[(6-Chloro-3-methoxy-2′-methyl[1,1′-biphenyl]-4-yl)carbonyl]-10,11-dihydro-5H-pyrrolo[2,1-c][1,4]benzodiazepin-3-yl}[(2S)-2-(1-pyrrolidinylmethyl)pyrrolidinyl]methanone] | – | 12
7 | Cc1cccc(N2CCN(C(=O)c3ccc4n3Cc3ccccc3N(C(=O)c3ccc(-c5ccccc5C(F)(F)F)c(C)c3)C4)CC2C)c1 (stereo not drawn) [Example 5, [3-Methyl-4-(3-methyl-phenyl)-piperazin-1-yl]-[10-(2-methyl-2′-trifluoromethyl-[1,1′-biphenyl]-4-yl)carbonyl]-10,11-dihydro-5H-pyrrolo[2,1-c][1,4]benzodiazepin-3-yl-methanone] | – | −6
8 | COc1cccc(-c2cc(OC)c(C(=O)N3Cc4ccc(C(=O)N5CCC[C@H]5CN5CCCC5)n4Cc4ccccc43)cc2Cl)c1 [Example 268, {10-[(6-Chloro-3,3′-dimethoxy[1,1′-biphenyl]-4-yl)carbonyl]-10,11-dihydro-5H-pyrrolo[2,1-c][1,4]benzodiazepin-3-yl}[(2S)-2-(1-pyrrolidinylmethyl)pyrrolidinyl]methanone] | – | 6
9 | COc1cc(C(=O)N2Cc3ccc(C(=O)N4CCC(N5CCCCC5)CC4)n3Cc3ccccc32)ccc1-c1cccc2ccccc12 [Example 118, {10-[3-Methoxy-4-(1-naphthyl)-benzoyl]-10,11-dihydro-5H-pyrrolo[2,1-c][1,4]benzodiazepin-3-yl}[4-(1-piperidinyl)-1-piperidinyl]methanone] | 14 | –
10 | Cc1cc(C(=O)N2Cc3ccc(C(=O)N(CCCN(C)C)CCCN(C)C)n3Cc3ccccc32)ccc1-c1ccccc1C(F)(F)F [Example 3, 10-[(2-Methyl-2′-trifluoromethyl-[1,1′-biphenyl]-4-yl)-carbonyl]-10,11-dihydro-5H-pyrrolo[2,1-c][1,4]benzodiazepine-3-carboxylic acid bis-(3-dimethylamino-propyl)-amide] | -8 | –
11 | Cc1ccccc1-c1ccc(C(=O)N2Cc3ccc(C(=O)N4CCC[C@H]4CN4CCCC4)n3Cc3ccccc32)cc1 [Example 264, {10-[(2′-Methyl[1,1′-biphenyl]-4-yl)carbonyl]-10,11-dihydro-5H-pyrrolo[2,1-c][1,4]benzodiazepin-3-yl}[(2S)-2-(1-pyrrolidinylmethyl)pyrrolidinyl]methanone] | – | 67
12 | COc1ccccc1-c1ccc(C(=O)N2Cc3ccc(C(=O)N4CCC[C@H]4CN4CCCC4)n3Cc3ccccc32)cc1C [Example 259, {10-[(2′-Methoxy-2-methyl[1,1′-biphenyl]-4-yl)carbonyl]-10,11-dihydro-5H-pyrrolo[2,1-c][1,4]benzodiazepin-3-yl}[(2S)-2-(1-pyrrolidinylmethyl)pyrrolidinyl]methanone] | – | 21

Further lines, with some results ahead:

Row | inhibition at 0.1 µM [%] | SMILES | V1a % inhibition @ 100 nM [%]
13 | 46 | COc1cc(C(=O)N2Cc3ccc(C(=O)N4CCC(N5CCCC5)CC4)n3Cc3ccccc32)ccc1-c1ccccc1C [Example 142, {10-[(2-Methoxy-2′-methyl[1,1′-biphenyl]-4-yl)carbonyl]-10,11-dihydro-5H-pyrrolo[2,1-c][1,4]benzodiazepin-3-yl}[4-(1-pyrrolidinyl)-1-piperidinyl]methanone] | –
14 | 17 | COc1cccc(-c2ccc(C(=O)N3Cc4ccc(C(=O)NCCN5CCCCC5)n4Cc4ccccc43)cc2C)c1 [Example 151, 10-[(3′-Methoxy-2-methyl[1,1′-biphenyl]-4-yl)carbonyl]-N-[2-(1-piperidinyl)ethyl]-10,11-dihydro-5H-pyrrolo[2,1-c][1,4]benzodiazepine-3-carboxamide] | –
15 | 6 | COc1cc(-c2ccccc2C)c(Cl)cc1C(=O)N1Cc2ccc(C(=O)NCCCn3ccnc3)n2Cc2ccccc21 [Example 129, 10-[(6-Chloro-3-methoxy-2′-methyl[1,1′-biphenyl]-4-yl)carbonyl]-N-[3-(1H-imidazol-1-yl)propyl]-10,11-dihydro-5H-pyrrolo[2,1-c][1,4]benzodiazepine-3-carboxamide] | –
16 | 8 | COc1cc(C(=O)N2Cc3ccc(C(=O)NCCCn4ccnc4)n3Cc3ccccc32)ccc1-c1cccc2ccccc12 [Example 131, N-[3-(1H-Imidazol-1-yl)propyl]-10-[3-methoxy-4-(1-naphthyl)benzoyl]-10,11-dihydro-5H-pyrrolo[2,1-c][1,4]benzodiazepine-3-carboxamide] | –
17 | -3 | COc1cccc(-c2cc(OC)c(C(=O)N3Cc4ccc(C(=O)N5CCC(N6CCCC6)CC5)n4Cc4ccccc43)cc2Cl)c1 [Example 143, {10-[(6-Chloro-3,3′-dimethoxy[1,1′-biphenyl]-4-yl)carbonyl]-10,11-dihydro-5H-pyrrolo[2,1-c][1,4]benzodiazepin-3-yl}[4-(1-pyrrolidinyl)-1-piperidinyl]methanone] | –
18 | 8 | Cc1cc(C(=O)N2Cc3ccc(C(=O)N4CCC(N5CCCCC5)CC4)n3Cc3ccccc32)ccc1-c1ccccc1C(F)(F)F [Example 122, {10-[(2-Methyl-2′-(trifluoromethyl) -[1,1′-biphenyl]-4-yl)carbonyl]-10,11-dihydro-5H -pyrrolo[2,1-c][1,4]benzodiazepin-3-yl}[4-(1-piperidinyl)-1-piperidinyl]methanone] | –
